Ends that are not written are not given here.
T1: xOX2R (Xenopus orexin type-2 receptor) (Xenopus laevis, UniProt F8RUB9)
T1 sequence (F8RUB9 1-440): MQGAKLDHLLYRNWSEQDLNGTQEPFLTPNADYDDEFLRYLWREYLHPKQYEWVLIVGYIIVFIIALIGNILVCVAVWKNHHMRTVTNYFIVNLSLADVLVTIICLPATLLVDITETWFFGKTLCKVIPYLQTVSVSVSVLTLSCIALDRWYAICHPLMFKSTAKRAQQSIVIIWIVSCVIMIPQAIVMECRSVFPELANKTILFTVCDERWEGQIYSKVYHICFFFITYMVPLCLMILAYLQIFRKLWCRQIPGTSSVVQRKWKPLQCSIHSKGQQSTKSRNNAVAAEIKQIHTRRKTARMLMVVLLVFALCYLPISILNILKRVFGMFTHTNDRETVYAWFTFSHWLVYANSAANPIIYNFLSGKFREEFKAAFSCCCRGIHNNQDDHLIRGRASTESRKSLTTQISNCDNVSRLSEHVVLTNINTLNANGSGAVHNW

T2: lfSCTR (P. dolloi secretin receptor) (Protopterus dolloi, UniProt F8RUA8)
T2 sequence (F8RUA8 1-463): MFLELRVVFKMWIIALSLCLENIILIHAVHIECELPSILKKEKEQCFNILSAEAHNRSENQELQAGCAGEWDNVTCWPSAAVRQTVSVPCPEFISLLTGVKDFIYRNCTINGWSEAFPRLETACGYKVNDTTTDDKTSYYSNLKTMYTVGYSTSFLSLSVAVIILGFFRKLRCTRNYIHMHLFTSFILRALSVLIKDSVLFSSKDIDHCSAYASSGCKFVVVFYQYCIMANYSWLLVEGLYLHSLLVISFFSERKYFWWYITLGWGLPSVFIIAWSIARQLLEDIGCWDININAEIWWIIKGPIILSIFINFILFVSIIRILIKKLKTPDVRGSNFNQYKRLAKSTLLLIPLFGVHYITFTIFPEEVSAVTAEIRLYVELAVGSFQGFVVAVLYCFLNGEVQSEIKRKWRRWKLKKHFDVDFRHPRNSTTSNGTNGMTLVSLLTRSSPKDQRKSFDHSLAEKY

B1: xSCT: 28-amino acid X. laevis secretin peptide cloned in this study, synthesized by one of the authors (protein)
chain: SSLPARSKRHVDGRFTSEFSRARGSAAIRKIINSALAGKRDIEENYQIDVPDVDNQREILKELAYNSLPELRSEEKQLTEQKAAEDLLCSAILNMLYRAPYQPLPAQSAQDYQGKNSSVEEVKHI

Key:
[1] = target: T1, xOX2R (Xenopus orexin type-2 receptor); test: Intracellular calcium mobilization in xOX2R-CHO cells; type: cell-based; conditions: data not shown
Method: (§1) For confocal calcium imaging, transiently transfected cells were plated at a density of 3000 cells/well in 24-well plates (Sigma-Aldrich, St. Louis, MO). After overnight incubation, cells were pre-loaded with 5 µM Fluo-3 acetoxymethyl ester (AM) (Sigma) for 45 min at 37°C in Tyrode solution consisting of (mM): 140 NaCl, 5 KCl, 1 MgCl2, 1 CaCl2, 10 glucose and 10 HEPES at pH 7.4. Calcium transient of single receptor-transfected CHO cell was recorded with a confocal imaging system (Olympus Fluoview System version 4.2 FV300 TIEMPO) mounted on an upright Olympus microscope (IX71). Peptides at concentrations ranging from 10^−5 to 10^−12 M were added at designated time point and calcium level was traced in a real-time manner using the Fluoview software (Olympus). […] For both assays, ionomycin (10 µM) was added at the end of each experiment to test the vitality of the cells.
(§2) Differences were considered significant when P<0.05.

orexin receptor = conditions: rat anterior hypothalamus and orexin receptor-transfected cells; cited from earlier work
Excerpt: (§3) Orexins A and B [17] or hypocretins 1 and 2 [18] are peptides isolated from the rat hypothalamus in 1998 by two independent research groups. Both peptides are derived from the same precursor protein and are produced by differential proteolytic cleavage. Because the C-terminal portions of both orexin peptides resemble the N-terminal of secretin, orexins were proposed to have originated from secretin or the related peptides in the secretin/glucagon superfamily, [19]. This hypothesis was then examined by studying the bindings of these peptides with their receptors in mammals and conf ...

[2] = system: R. rugulosa pancreatic ductal cells; test: cAMP production in primary culture of R. rugulosa pancreatic ductal cells; type: cell-based, Rana rugulosa; conditions: positive control
Method: Adult male R. rugulosa was sacrificed by cervical decapitation. The freshly excised pancreas was removed and washed in Ringer solution (in mM, 85 NaCl, 4 KCl, 17.5 NaHCO3, 0.8 KH2PO4, 2 glucose, 1.5 CaCl2 and 0.8 MgCl2, pH 7.6). The excised pancreas was then minced into approximately 1 mm^3 pieces and digested at room temperature for 1 hr in the dissociation medium (Ringer solution supplemented with 0.2 mg/ml soy beans trypsin inhibitor (Sigma), 2 mg/ml BSA (Roche), 400 U/ml hyaluronidase (Sigma) and 50 U/ml collagenase (Sigma)). The tissue suspension was then washed with Ringer solution and small clusters of dissociated cells were filtered with the use of a 100-µm cell strainer (BD Falcon, US). Filtrate containing the undigested tissue, including the pancreatic ducts, was maintained in culture medium (80% Leibovitz's L-15 medium (Invitrogen) supplemented with 10% FBS and 100 U/ml Penicillin/[…] Streptomycin) in a humidified incubator at 24°C. […] The isolated pancreatic ductal cells were then used for cAMP stimulation in the presence of xSCT peptides and forskolin.

human orexin receptors = conditions: cited from earlier work
Excerpt: as §3

[3] = system: human orexin type-2 receptor; conditions: human orexin type-2 receptor-transfected CHO cells; cited from earlier work
Excerpt: as §3

[4] = target: T2, lfSCTR (P. dolloi secretin receptor); test: Intracellular cAMP production in lfSCTR-transfected CHO cells; type: cell-based; conditions: for [cAMP]i stimulation of lfSCTR at 100 nM: 100 nM peptide, lfSCTR-transfected CHO-K1 cells, P<0.001; for EC50: CHO cells transiently transfected with lfSCTR, graded peptide concentrations, LANCE cAMP assay, mean ± SEM, n = 4, read-out: [cAMP]i EC50, lfSCTR
Excerpt: as §2

[5] = target: T2, lfSCTR (P. dolloi secretin receptor); test: Intracellular calcium mobilization in lfSCTR-transfected CHO cells; type: cell-based; conditions: lfSCTR-transfected CHO cells preloaded with Fluo-3; confocal imaging; at least 10 independent experiments; read-out: [Ca2+]i EC50, lfSCTR
Method: as §1, §2

[6] = lfSCTR-CHO cells, micro-molar concentrations (10^-5 and 10^-6 M)

Molecule	[cAMP]i stimulation of lfSCTR at 100 nM [4]	EC50 [4] [nM]	EC50 [5] [nM]	also measured
Human orexin A: human orexin A peptide (QPLPDCCRQKTCSCRLYELLHGAGNHAAGILTL; ends and bridges not checked; cysteine pairing not given here; UniProt O43612 34-66, looked up)	–	–	–	[Ca2+]i response, xOX2R [1]: able to induce calcium elevations
Porcine SCT: porcine secretin, literature result (HSDGTFTSELSRLRDSARLQRLLQGLV; ends and bridges not checked; UniProt P63298 33-59, looked up)	–	–	–	displacement of [125I] orexin A binding (orexin receptor): found to displace
C=C[C@@]1(C)CC(=O)[C@]2(O)[C@@]3(C)[C@@H](O)CCC(C)(C)[C@@H]3[C@H](O)[C@H](OC(C)=O)[C@@]2(C)O1 [Forskolin]	–	–	–	increase in cAMP level compared with the basal [2]: 20 fold
SCT: secretin, species not stated, in cited human orexin receptor studies	–	–	–	agonistic or antagonistic effects (human orexin receptors): neither agonistic nor antagonistic effects; calcium elevation [3]: unable; displacement of [125I] orexin A [3]: unable to displace
Human orexin B: human orexin B peptide	–	–	–	[Ca2+]i response, xOX2R [1]: able to induce calcium elevations
CC[C@H](C)[C@H](NC(=O)CNC(=O)[C@H](CC(=O)O)NC(=O)[C@H](CO)NC(=O)[C@@H](N)Cc1c[nH]cn1)C(=O)N[C@@H](Cc1ccccc1)C(=O)N[C@H](C(=O)N[C@@H](CC(=O)O)C(=O)N[C@@H](CO)C(=O)N[C@@H](Cc1ccc(O)cc1)C(=O)N[C@@H](CO)C(=O)N[C@@H](CCCNC(=N)N)C(=O)N[C@@H](Cc1ccc(O)cc1)C(=O)N[C@@H](CCCNC(=N)N)C(=O)N[C@@H](CCCCN)C(=O)N[C@@H](CCC(N)=O)C(=O)N[C@@H](CCSC)C(=O)N[C@@H](C)C(=O)N[C@H](C(=O)N[C@@H](CCCCN)C(=O)N[C@@H](CCCCN)C(=O)N[C@@H](Cc1ccc(O)cc1)C(=O)N[C@@H](CC(C)C)C(=O)N[C@@H](C)C(=O)N[C@@H](C)C(=O)N[C@H](C(=O)N[C@@H](CC(C)C)C(N)=O)C(C)C)C(C)C)[C@@H](C)O [hPACAP27]	significantly stimulate	410	25.6	–
CC[C@H](C)[C@H](NC(=O)[C@H](CO)NC(=O)[C@H](CC(N)=O)NC(=O)[C@H](CC(C)C)NC(=O)[C@H](Cc1ccc(O)cc1)NC(=O)[C@H](CCCCN)NC(=O)[C@H](CCCCN)NC(=O)[C@@H](NC(=O)[C@H](C)NC(=O)[C@H](CCSC)NC(=O)[C@H](CCC(N)=O)NC(=O)[C@H](CCCCN)NC(=O)[C@H](CCCNC(=N)N)NC(=O)[C@H](CC(C)C)NC(=O)[C@H](CCCNC(=N)N)NC(=O)[C@@H](NC(=O)[C@H](Cc1ccc(O)cc1)NC(=O)[C@H](CC(N)=O)NC(=O)[C@H](CC(=O)O)NC(=O)[C@@H](NC(=O)[C@H](Cc1ccccc1)NC(=O)[C@@H](NC(=O)[C@H](C)NC(=O)[C@H](CC(=O)O)NC(=O)[C@H](CO)NC(=O)[C@@H](N)Cc1c[nH]cn1)C(C)C)[C@@H](C)O)[C@@H](C)O)C(C)C)C(=O)N[C@@H](CC(C)C)C(=O)N[C@@H](CC(N)=O)C(N)=O [hVIP]	significantly stimulate	160	10.3	–
CC(C)C[C@H](NC(=O)CNC(=O)[C@H](CCC(N)=O)NC(=O)[C@H](CC(C)C)NC(=O)[C@H](CC(C)C)NC(=O)[C@H](CCCNC(=N)N)NC(=O)[C@H](CCC(N)=O)NC(=O)[C@H](CC(C)C)NC(=O)[C@H](CCCNC(=N)N)NC(=O)[C@H](C)NC(=O)CNC(=O)[C@H](CCC(=O)O)NC(=O)[C@H](CCCNC(=N)N)NC(=O)[C@H](CC(C)C)NC(=O)[C@H](CCCNC(=N)N)NC(=O)[C@H](CO)NC(=O)[C@H](CC(C)C)NC(=O)[C@H](CCC(=O)O)NC(=O)[C@H](CO)NC(=O)[C@@H](NC(=O)[C@H](Cc1ccccc1)NC(=O)[C@@H](NC(=O)CNC(=O)[C@H](CC(=O)O)NC(=O)[C@H](CO)NC(=O)[C@@H](N)Cc1c[nH]cn1)[C@@H](C)O)[C@@H](C)O)C(=O)N[C@H](C(N)=O)C(C)C [hSCT]	significantly stimulate	790	14.7	efficacy of hSCT relative to hPACAP27 in triggering [cAMP]i [4, 6]: 5.0 fold; efficacy of hSCT relative to hVIP in triggering [cAMP]i [4, 6]: 3.6 fold
B1	–	1820	273	–
